Consider 13 molecules from patent US4027016A, “Everninomicin antibacterial derivatives, electrochemical method for their manufacture, method for their use as antibacterial agents, and pharmaceutical compositions useful therefor” (Schering Corporation, priority 1976, dated 1977).

Converted amounts (≈) assume the structure as drawn. Structures can show the parent of a compound that is named as a salt. Where two headings read alike, the source gives them in different places.

The test system of data set [1] is Staphylococcus aureus Strain Ziegler. The data set can be described thus: Microbiological Activity (in vitro), Staphylococcus aureus Strain Ziegler. In kind it is cell-based.
For data set [2], the system named is Staphylococcus aureus Strain 209B. The experiment in a line: Microbiological Activity (in vitro), Staphylococcus aureus Strain 209B. Format: cell-based. To be noted: STRAIN209B.
The test system of data set [3] is Staphylococcus aureus Strain Wood. The data set can be described thus: Microbiological Activity (in vitro), Staphylococcus aureus Strain Wood. In kind it is cell-based.
Data set [4] has as its system Staphylococcus aureus Strain 59N. The experiment in a line: Microbiological Activity (in vitro), Staphylococcus aureus Strain 59N. Particulars: STRAIN59N. Format: cell-based.
In data set [5] the test system is Staphylococcus aureus Strain Gray. The data set can be described thus: Microbiological Activity (in vitro), Staphylococcus aureus Strain Gray. Format: cell-based.
Data set [6] is described as follows: Peak Serum Levels in Dogs. In kind it is in vivo, dog. Particulars: for Peak Serum Levels in Dogs: 10 mg/kg i.m., single dose, agar diffusion assay of serum. Here is the method:
In determining peak serum levels, the animal tested (e.g. dog) is given a single dose of 10 mg/kg of the everninomicin D derivative, blood samples are taken periodically, and the serum thereof is assayed for antibacterial activity by an agardiffusion-assay as described by Weinstein et al., Antimicrobial Agents and Chemotherapy, p. 24 (1964).
Background: Agar diffusion results depend on both activity and mobility in agar.

Data set [7] concerns bacteria. Particulars: known compounds, cited from earlier work.
The nature of data set [8]: pKa. Format: physicochemical.
The subject of data set [9] is bacteria which are resistant to other antibacterial agents. The data set can be described thus: Antibacterial activity against resistant bacteria (in words). Format: cell-based. To be noted: resistant to penicillin, penicillinase-resistant penicillins, tetracycline, macrolides such as erythromycin, lincomycin.
The subject of data set [10] is gram-positive bacteria. The data set can be described thus: Antibacterial activity against gram-positive bacteria (in words). In kind it is cell-based. To be noted: for antibacterial activity in vitro against gram-positive bacteria: e.g. Staphylococcus aureus, Staph. 11631, Staph. W., Streptococcus pyogenes C, Strep. pyogenes C-203, Bacillus subtilis.
Data set [11] concerns gram-negative bacteria. The data set can be described thus: Antibacterial activity against gram-negative bacteria (in words). Format: cell-based. To be noted: certain gram-negative bacteria.
The test system of data set [12] is bacteria. The data set can be described thus: Antibacterial activity, general (in words). To be noted: when administered by injection.

In the case of `COCC1OC(OC2OCC3OC4(OCC(O)(C(C)OC)C5OCOC54)OC3C2OC)C(OC)C(O)C1OC1OC(C)C(OC)C(OC2CC3(C)OC4(CC(O)C(OC5CC(OC6CC(C)(NO)C(OC)C(C)O6)C(OC(=O)c6c(C)c(Cl)c(O)c(Cl)c6OC)C(C)O5)C(C)O4)OC3C(C)O2)C1O` (stereo not shown) [Hydroxylaminoeverninomicin D Sodium salt, reference compound], the MIC in data set [1] was 0.06 µg/mL; in data set [2], 0.06 µg/mL; in data set [3], 0.06 µg/mL; in data set [4], 0.03 µg/mL; in data set [5], 0.06 µg/mL. Also, the “Peak Serum Levels in Dogs” value in data set [6] is 20-30.

Regarding `COCC1OC(OC2OCC3OC4(OCC(O)(C(C)OC)C5OCOC54)OC3C2OC)C(OC)C(O)C1OC1OC(C)C(OC)C(OC2OC(C)C3OC4(CC(O)C(OC5CC(O)C(OC(=O)c6c(C)c(Cl)c(O)c(Cl)c6OC)C(C)O5)C(C)O4)OC3(C)C2O)C1O` (stereo not shown) [desevernitrose everninomicin B], the antibacterial activity entry in [7] (U.S. Pat. No. 3,920,629) was “having anti-bacterial activity”.

Turning to `COCC1OC(OC2OCC3OC4(OCC(O)C5OCOC54)OC3C2OC)C(OC)C(O)C1OC1OC(C)C(OC)C(OC2CC3(C)OC4(CC(O)C(OC5CC(O)C(OC(=O)c6c(C)c(Cl)c(O)c(Cl)c6OC)C(C)O5)C(C)O4)OC3C(C)O2)C1O` (stereo not shown) [desevernitrose everninomicin C], the antibacterial activity entry in data set [7] (U.S. Pat. No. 3,920,629) was “having anti-bacterial activity”.

`COCC1OC(OC2OCC3OC4(OCC(O)(C(C)OC)C5OCOC54)OC3C2OC)C(OC)C(O)C1OC1OC(C)C(OC)C(OC2CC3(C)OC4(CC(O)C(OC5CC(O)C(OC(=O)c6c(C)c(Cl)c(O)c(Cl)c6OC)C(C)O5)C(C)O4)OC3C(C)O2)C1O` (stereo not shown) [desevernitrose everninomicin D]: the antibacterial activity result in data set [7] (U.S. Pat. No. 3,920,629) is “having anti-bacterial activity”. Moreover, the pKa in data set [8] is 7.5.

Regarding `COCC1OC(OC2OCC3OC4(OCC(O)(C(C)OC)C5OCOC54)OC3C2OC)C(OC)C(O)C1OC1OC(C)C(OC)C(OC2OC(C)C3OC4(CC(O)C(OC5CC(OC6CC(C)(O)C(OC)C(C)O6)C(OC(=O)c6c(C)c(Cl)c(O)c(Cl)c6OC)C(C)O5)C(C)O4)OC3(C)C2O)C1O` (stereo not shown) [everninomicin B-7], the “antibacterial activity against resistant bacteria” value in data set [9] is “exhibit antibacterial activity against bacteria which are resistant to other antibacterial agents”. Further, in [10], the “inhibiting the growth of gram-positive bacteria” value (shortened to “inhibiting the growth”) is on record as “antibacterial activity against gram-positive bacteria” and the “antibacterial activity in vitro against gram-positive bacteria” value (shortened to “antibacterial activity in vitro”) is on record as “narrow spectrum antibacterial activity in vitro against gram-positive bacteria”.

As to `COCC1OC(OC2OCC3OC4(OCC(O)C5OCOC54)OC3C2OC)C(OC)C(O)C1OC1OC(C)C(OC)C(OC2CC3(C)OC4(CC(O)C(OC5CC(OC6CC(C)(O)C(OC)C(C)O6)C(OC(=O)c6c(C)c(Cl)c(O)c(Cl)c6OC)C(C)O5)C(C)O4)OC3C(C)O2)C1O` (stereo not shown) [everninomicin C-7], the “antibacterial activity against resistant bacteria” value in data set [9] is “exhibit antibacterial activity against bacteria which are resistant to other antibacterial agents”. For the same molecule, in data set [10], the “inhibiting the growth” value is “antibacterial activity against gram-positive bacteria” and the “antibacterial activity in vitro” value is given as “narrow spectrum antibacterial activity in vitro against gram-positive bacteria”.

As to `COCC1OC(OC2OCC3OC4(OCC(O)(C(C)OC)C5OCOC54)OC3C2OC)C(OC)C(O)C1OC1OC(C)C(OC)C(OC2CC3(C)OC4(CC(O)C(OC5CC(OC6CC(C)(O)C(OC)C(C)O6)C(OC(=O)c6c(C)c(Cl)c(O)c(Cl)c6OC)C(C)O5)C(C)O4)OC3C(C)O2)C1O` [everninomicin D-7], the “antibacterial activity against resistant bacteria” value in [9] is reported as “exhibit antibacterial activity against bacteria which are resistant to other antibacterial agents”. Further, in [11], the “susceptibility of gram-negative bacteria” value is listed as “certain gram-negative bacteria are also susceptible”. In addition, the MIC in data set [1] turned out to be 0.75 µg/mL (≈ 0.497 µM); in [2] it was 0.3 µg/mL (≈ 0.199 µM); in [3], 0.75 µg/mL (≈ 0.497 µM); in [4], 0.075 µg/mL (≈ 0.0497 µM); in [5], 0.3 µg/mL (≈ 0.199 µM). Also, the “antibacterial activity relative to precursor hydroxylaminoeverninomicin D” value in data set [12] is listed as “antibacterial activity comparable to that of the precursor hydroxylaminoeverninomicin D”. In addition, in data set [6], the “Peak Serum Levels in Dogs” value was 15-60. Also, in data set [6] (when administered by injection), the “absorption and serum levels in the dog” value is listed as “rapidly absorbed, producing high serum levels in the dog”. Besides, the “inhibiting the growth” value in data set [10] is reported as “particularly effective in inhibiting the growth of gram-positive bacteria”. Besides, the “antibacterial activity in vitro” value in data set [10] is reported as “narrow spectrum antibacterial activity in vitro against gram-positive bacteria”.

`COCC1OC(OC2OCC3OC4(OCC(O)(C(C)OC)C5OCOC54)OC3C2OC)C(OC)C(O)C1OC1OC(C)C(OC)C(OC2OC(C)C3OC4(CC(O)C(OC5CC(OC6CC(C)(NO)C(OC)C(C)O6)C(OC(=O)c6c(C)c(Cl)c(O)c(Cl)c6OC)C(C)O5)C(C)O4)OC3(C)C2O)C1O` (stereo not shown) [hydroxylaminoeverninomicin B]: the antibacterial activity result in data set [7] (U.S. Pat. No. 3,915,956) is “exhibit antibacterial activity”.

Regarding `COCC1OC(OC2OCC3OC4(OCC(O)C5OCOC54)OC3C2OC)C(OC)C(O)C1OC1OC(C)C(OC)C(OC2CC3(C)OC4(CC(O)C(OC5CC(OC6CC(C)(NO)C(OC)C(C)O6)C(OC(=O)c6c(C)c(Cl)c(O)c(Cl)c6OC)C(C)O5)C(C)O4)OC3C(C)O2)C1O` (stereo not shown) [hydroxylaminoeverninomicin C], in data set [7] (U.S. Pat. No. 3,915,956), the antibacterial activity entry is on record as “exhibit antibacterial activity”.

In the case of `COCC1OC(OC2OCC3OC4(OCC(O)(C(C)OC)C5OCOC54)OC3C2OC)C(OC)C(O)C1OC1OC(C)C(OC)C(OC2CC3(C)OC4(CC(O)C(OC5CC(OC6CC(C)(NO)C(OC)C(C)O6)C(OC(=O)c6c(C)c(Cl)c(O)c(Cl)c6OC)C(C)O5)C(C)O4)OC3C(C)O2)C1O` (stereo not shown) [hydroxylaminoeverninomicin D], in data set [7] (U.S. Pat. No. 3,915,956), the antibacterial activity result is “exhibit antibacterial activity”.

On to `COCC1OC(OC2OCC3OC4(OCC(O)(C(C)OC)C5OCOC54)OC3C2OC)C(OC)C(O)C1OC1OC(C)C(OC)C(OC2OC(C)C3OC4(CC(O)C(OC5CC(OC6CC(C)(N=O)C(OC)C(C)O6)C(OC(=O)c6c(C)c(Cl)c(O)c(Cl)c6OC)C(C)O5)C(C)O4)OC3(C)C2O)C1O` (stereo not shown) [nitrosoeverninomicin B], for which, in data set [7] (U.S. Pat. No. 3,915,956), the antibacterial activity entry was “exhibit antibacterial activity”.

For the molecule `COCC1OC(OC2OCC3OC4(OCC(O)C5OCOC54)OC3C2OC)C(OC)C(O)C1OC1OC(C)C(OC)C(OC2CC3(C)OC4(CC(O)C(OC5CC(OC6CC(C)(N=O)C(OC)C(C)O6)C(OC(=O)c6c(C)c(Cl)c(O)c(Cl)c6OC)C(C)O5)C(C)O4)OC3C(C)O2)C1O` (stereo not shown) [nitrosoeverninomicin C], the antibacterial activity entry in [7] (U.S. Pat. No. 3,915,956) is recorded as “exhibit antibacterial activity”.

Take `COCC1OC(OC2OCC3OC4(OCC(O)(C(C)OC)C5OCOC54)OC3C2OC)C(OC)C(O)C1OC1OC(C)C(OC)C(OC2CC3(C)OC4(CC(O)C(OC5CC(OC6CC(C)(N=O)C(OC)C(C)O6)C(OC(=O)c6c(C)c(Cl)c(O)c(Cl)c6OC)C(C)O5)C(C)O4)OC3C(C)O2)C1O` (stereo not shown) [nitrosoeverninomicin D]: the antibacterial activity entry in [7] (U.S. Pat. No. 3,915,956) is given as “exhibit antibacterial activity”.

In general, MIC refers to the lowest concentration found to suppress growth. Higher therefore signals a need for much substance. The term pKa denotes the pH at which an ionisable group is half protonated. A lower pKa goes with a stronger acid or weaker base.
